Data taken from the CheMixHub ionic liquid set.

Assay: xn = mol fraction of the nth substance listed

[I-].[Li+] + CC[n+]1ccn(C)c1.O=S(=O)([O-])C(F)(F)F
electrical conductivity [S/m], 101 kPa
Details	288.15 K	298.15 K	333.15 K
x1 = 0.007746	0.575	0.843	2.22
x1 = 0.01537	0.548	0.817	2.15
x2 = 0.9746	0.556	0.827	2.17

CCCC[N+](CCCC)(CCCC)CCCC.O=S(=O)([O-])O + Cc1ncc(C[n+]2csc(CCO)c2C)c(N)n1.Cl.[Cl-] + O
viscosity [mPa·s], 101 kPa
Details	298.15 K	308.15 K	318.15 K
x2 = 0.0003644, x1 = 0.0003601	0.9075	0.7352	0.6088
x2 = 0.0003645, x1 = 9.006e-05	0.9037	0.7314	0.605
x2 = 0.000365, x1 = 0.0001801	0.905	0.7327	0.6062
x2 = 0.0003656, x1 = 0.0002701	0.9062	0.7339	0.6075
x2 = 0.0006576, x1 = 0.0001801	0.9165	0.7418	0.6142
x2 = 0.0006584, x1 = 9.003e-05	0.9153	0.7406	0.6129
x2 = 0.0006587, x1 = 0.00027	0.918	0.7431	0.615
x2 = 0.0006597, x1 = 0.00036	0.919	0.7443	0.6167
x2 = 0.0009539, x1 = 9.001e-05	0.9257	0.7497	0.6208
x2 = 0.0009554, x1 = 0.00018	0.93	0.751	0.62
x2 = 0.0009567, x1 = 0.0003599	0.9295	0.7535	0.6246
x2 = 0.0009569, x1 = 0.00027	0.9283	0.7522	0.6234
x2 = 0.001253, x1 = 8.998e-05	0.9373	0.7589	0.6288
x2 = 0.001255, x1 = 0.0001799	0.9386	0.7602	0.63
x2 = 0.001255, x1 = 0.0002699	0.9398	0.7614	0.6313
x2 = 0.001257, x1 = 0.0003598	0.9411	0.7626	0.6326
x2 = 0.001555, x1 = 8.995e-05	0.9478	0.7692	0.6355
x2 = 0.001556, x1 = 0.0001799	0.9491	0.7705	0.6368
x2 = 0.001558, x1 = 0.0002698	0.95	0.7717	0.64
x2 = 0.001561, x1 = 0.0003597	0.9516	0.773	0.6393
x2 = 0.001859, x1 = 8.992e-05	0.9569	0.7784	0.6425
x2 = 0.00186, x1 = 0.0001798	0.9582	0.7797	0.6438
x2 = 0.001863, x1 = 0.0002697	0.9594	0.7809	0.6451
x2 = 0.001866, x1 = 0.0003596	0.9607	0.7822	0.6464

CCCC[N+](CCCC)(CCCC)CCCC.O=S(=O)([O-])O + CCCCCCCCCO
101.3 kPa, x1 = 0.2
Details	electrical conductivity [S/m]	viscosity [mPa·s]
293.15 K	0.00273	164.6
298.15 K	0.00375	–
303.15 K	0.00499	–
308.15 K	0.00648	84.2
313.15 K	0.0082	65.8

CCCCCC[n+]1ccn(C)c1.O=[N+]([O-])[O-] + CC(C)O
viscosity [mPa·s], 100 kPa
Details	293.15 K	298.15 K	303.15 K	308.15 K	313.15 K	318.15 K	323.15 K
x1 = 0.0817	6.79	5	3.85	2.97	2.39	2.01	1.65
x1 = 0.1594	16	11.18	7.97	5.99	4.67	3.68	2.88
x1 = 0.2402	32	23	17	12.69	9.5	7.25	5.63
x1 = 0.3493	66	47.7	34	26.9	21	16.7	12.75
x1 = 0.4408	111	79.5	55.4	43.2	34.4	27.2	21.3
x1 = 0.5609	187	136.6	91	70	55.8	43.5	34
x1 = 0.6502	266	193	122.4	94.1	74.7	58.3	44.5
x1 = 0.7417	363	265	164.3	123.7	96	75.4	58
x1 = 0.8518	505	372	232	168.8	128.2	101.2	78.6
x1 = 0.9396	664	467	306	218	160.5	124	96.7
x1 = 1	804	545	369	258	186	140.2	110.9
